Laboratory results: BindingDB's records for doi:10.1021/jm0209984 (Universit&#224, 2003)

Assay: Concentration required to achieve 50% protection of MT-4 cell from the HIV-1 induced cytopathogenicity was determined by the MTT method

Row | SMILES | EC50 [µM]
1 | O=C(c1ccccc1)N(C(=S)OCc1ccco1)c1ccccc1 [Benzoyl-phenyl-thiocarbamic acid O-furan-2-ylmethyl ester] | > 38.3
2 | O=C1c2ccccc2C(=O)N1CCOC(=S)N(C(=O)c1ccco1)c1ccc(Cl)cc1 [O-2-(1,3-dioxoisoindolin-2-yl)ethyl 4-chlorophenyl(furan-2-carbonyl)carbamothioate] | 0.007
3 | O=C1c2ccccc2C(=O)N1CCOC(=S)N(C(=O)c1ccccc1)c1ccc(Cl)cc1 [O-2-(1,3-dioxoisoindolin-2-yl)ethyl benzoyl(4-chlorophenyl)carbamothioate] | 0.1
4 | CCCCOC(=O)N(C(=S)OC(C)COc1ccccc1)c1ccccc1 (centres undefined) [O-butyl O-(1-methyl-2-phenoxyethyl) phenylimidothiodicarbonate] | 47
5 | O=C(/C=C/c1ccccc1)N(C(=S)OCCOc1ccccc1)c1ccccc1 [Phenyl-(3-phenyl-acryloyl)-thiocarbamic acid O-(2-phenoxy-ethyl) ester] | 7.7
6 | O=C(/C=C/c1ccccc1)N(C(=S)OCCc1ccccc1)c1ccccc1 [Phenyl-(3-phenyl-acryloyl)-thiocarbamic acid O-phenethyl ester] | 4.5

Further lines, results first:

Row | EC50 [µM] | SMILES
7 | 4.2 | O=C(c1ccccc1)N(C(=S)OCCc1ccccc1)c1ccccc1 [Benzoyl-phenyl-thiocarbamic acid O-phenethyl ester]
8 | 0.02 | S=C(NCCc1ccccn1)Nc1ccc(Br)cn1 [N-(2-(2-Pyridylethyl))-N -(2-(5-bromopyridyl))thiourea]
9 | 0.025 | O=C1c2ccccc2C(=O)N1CCOC(=S)N(C(=O)c1ccc(Cl)cc1)c1ccc(Cl)cc1 [O-2-(1,3-dioxoisoindolin-2-yl)ethyl 4-chlorobenzoyl(4-chlorophenyl)carbamothioate]
10 | > 200 | CC(COc1ccccc1)OC(=S)N(C(=O)Oc1ccccc1)c1ccccc1 (centres undefined) [O-(1-methyl-2-phenoxyethyl) O-phenyl phenylimidothiodicarbonate]
11 | 131 | CCCOC(=O)N(C(=S)OC(C)COc1ccccc1)c1ccccc1 (centres undefined) [O-(1-methyl-2-phenoxyethyl) O-propyl phenylimidothiodicarbonate]
12 | 9.6 | COc1cc(C(=O)N(C(=S)OCCOc2ccccc2)c2ccccc2)cc(OC)c1OC [Phenyl-(3,4,5-trimethoxy-benzoyl)-thiocarbamic acid O-(2-phenoxy-ethyl) ester]
13 | 2 | CC(COc1ccccc1)OC(=S)N(C(=O)c1cccs1)c1ccccc1 (centres undefined) [Phenyl-(thiophene-2-carbonyl)-thiocarbamic acid O-(1-methyl-2-phenoxy-ethyl) ester]
14 | 8.6 | O=C(c1cccs1)N(C(=S)OCCOc1ccccc1)c1ccccc1 [Phenyl-(thiophene-2-carbonyl)-thiocarbamic acid O-(2-phenoxy-ethyl) ester]
